Assay results as given in patent US20170008888A1 (KYORIN PHARMACEUTICAL CO., LTD., priority 2014, published 2017).

Legend:
ACK = target: T1, ACK (Homo sapiens, UniProt Q07912); assay: Probe-based (AX9989) kinase profiling in Jurkat lysate: ACK; format: binding; details: read-out: Kinase inhibition % at indicated screening concentration: ACK; for inhibition at 1 µM: screening concentration 1.0 μM; for inhibition at 0.1 µM: screening concentration 0.1 μM
T1 construct: screened for activity against several kinases in Jurkat cells; endogenous in cells; host or cells: Jurkat cell lysate
Outline: (§1)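 Jurkat lysate, HEPES pH 7.5 buffer + 20 mM MnCl2; cpd 15 min RT; AX9989 ATP probe 5 μM final, RT. Trypsin digest, streptavidin capture, LC/MS; % inhibition vs vehicle from labeled-peptide signal.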

JAK1 = target: T2, JAK1 (Homo sapiens, UniProt P23458); assay: Probe-based (AX9989) kinase profiling in Jurkat lysate: JAK1; format: binding; details: read-out: Kinase inhibition % at indicated screening concentration: JAK1; for inhibition at 1 µM: screening concentration 1.0 μM; for inhibition at 0.1 µM: screening concentration 0.1 μM
T2 construct: screened for activity against several kinases in Jurkat cells; endogenous in cells; host or cells: Jurkat cell lysate
Outline: as §1

AurB or AurC = assay: Probe-based (AX9989) kinase profiling in Jurkat lysate: AurB or AurC; format: binding
Outline: as §1

[1] = target: T3, BRD4 bromodomain domain I [BRD4(1)] (Homo sapiens, UniProt O60885); assay: BRD4 bromodomain domain 1 inhibition assay (TR-FRET); format: binding; details: screening concentration 10 μM
T3 construct: BRD4 bromodomain domain I [BRD4(1)]; purchased Cayman Chemicals
Outline: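 0.5% DMSO, in triplicate, using Cayman BRD4(1) TR-FRET protocol with slight modification. 670/620 nm ratio normalized to 10 μM JQ1, with DMSO control set as 0% inhibition.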

human PBMCs = assay: Human PBMC TNF-α response to endotoxin (ELISA); format: cell-based; details: 0.1 μg/ml LPS 16 h, read-out: EC50 for the inhibition of the human PBMC TNF-α response to endotoxin, ave. ± S.D.
Outline: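 PBMCs at 2e6 cells/ml in RPMI 1640 with 10% charcoal-dextran-treated FBS were pre-treated 1 h at 37 °C with compound (4-point 1:5 dilution from 10 μM). Stimulation with 0.1 μg/ml E. coli 0111:B4 LPS for 16 h; TNF-α measured by ELISA (A450) in 25-fold diluted supernatant.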

ABL or ARG = assay: Probe-based (AX9989) kinase profiling in Jurkat lysate: ABL or ARG; format: binding
Outline: as §1

T2 sequence (P23458 whole entry): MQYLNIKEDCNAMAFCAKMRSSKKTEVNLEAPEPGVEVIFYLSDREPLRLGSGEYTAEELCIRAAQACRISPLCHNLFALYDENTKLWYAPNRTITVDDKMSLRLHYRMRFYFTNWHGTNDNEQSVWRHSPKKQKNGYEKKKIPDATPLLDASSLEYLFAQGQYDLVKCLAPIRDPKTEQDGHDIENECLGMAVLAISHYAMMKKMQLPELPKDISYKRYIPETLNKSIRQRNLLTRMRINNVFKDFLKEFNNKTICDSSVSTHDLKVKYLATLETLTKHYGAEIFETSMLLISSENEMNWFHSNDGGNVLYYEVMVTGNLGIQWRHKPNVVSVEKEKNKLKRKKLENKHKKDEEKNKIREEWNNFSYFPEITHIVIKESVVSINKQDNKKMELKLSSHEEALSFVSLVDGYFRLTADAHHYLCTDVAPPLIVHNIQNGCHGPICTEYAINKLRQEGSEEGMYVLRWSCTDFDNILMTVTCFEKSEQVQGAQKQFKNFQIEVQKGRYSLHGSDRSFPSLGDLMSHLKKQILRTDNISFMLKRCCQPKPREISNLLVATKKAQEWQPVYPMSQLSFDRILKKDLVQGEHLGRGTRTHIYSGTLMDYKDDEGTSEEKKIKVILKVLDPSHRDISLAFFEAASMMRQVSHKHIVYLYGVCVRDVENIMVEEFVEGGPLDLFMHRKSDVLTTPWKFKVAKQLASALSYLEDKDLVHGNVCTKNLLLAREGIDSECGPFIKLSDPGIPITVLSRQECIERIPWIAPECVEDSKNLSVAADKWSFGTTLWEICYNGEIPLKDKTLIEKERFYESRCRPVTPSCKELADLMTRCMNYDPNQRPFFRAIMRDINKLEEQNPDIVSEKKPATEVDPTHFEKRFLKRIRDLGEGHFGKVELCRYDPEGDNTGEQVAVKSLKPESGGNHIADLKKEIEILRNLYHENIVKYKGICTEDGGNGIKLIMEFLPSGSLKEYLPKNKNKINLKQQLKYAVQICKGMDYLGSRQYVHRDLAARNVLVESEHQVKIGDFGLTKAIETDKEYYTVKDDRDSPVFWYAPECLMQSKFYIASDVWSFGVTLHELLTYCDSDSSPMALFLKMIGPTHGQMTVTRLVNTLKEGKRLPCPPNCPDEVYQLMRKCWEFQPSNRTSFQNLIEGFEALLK
T1 sequence (Q07912 whole entry): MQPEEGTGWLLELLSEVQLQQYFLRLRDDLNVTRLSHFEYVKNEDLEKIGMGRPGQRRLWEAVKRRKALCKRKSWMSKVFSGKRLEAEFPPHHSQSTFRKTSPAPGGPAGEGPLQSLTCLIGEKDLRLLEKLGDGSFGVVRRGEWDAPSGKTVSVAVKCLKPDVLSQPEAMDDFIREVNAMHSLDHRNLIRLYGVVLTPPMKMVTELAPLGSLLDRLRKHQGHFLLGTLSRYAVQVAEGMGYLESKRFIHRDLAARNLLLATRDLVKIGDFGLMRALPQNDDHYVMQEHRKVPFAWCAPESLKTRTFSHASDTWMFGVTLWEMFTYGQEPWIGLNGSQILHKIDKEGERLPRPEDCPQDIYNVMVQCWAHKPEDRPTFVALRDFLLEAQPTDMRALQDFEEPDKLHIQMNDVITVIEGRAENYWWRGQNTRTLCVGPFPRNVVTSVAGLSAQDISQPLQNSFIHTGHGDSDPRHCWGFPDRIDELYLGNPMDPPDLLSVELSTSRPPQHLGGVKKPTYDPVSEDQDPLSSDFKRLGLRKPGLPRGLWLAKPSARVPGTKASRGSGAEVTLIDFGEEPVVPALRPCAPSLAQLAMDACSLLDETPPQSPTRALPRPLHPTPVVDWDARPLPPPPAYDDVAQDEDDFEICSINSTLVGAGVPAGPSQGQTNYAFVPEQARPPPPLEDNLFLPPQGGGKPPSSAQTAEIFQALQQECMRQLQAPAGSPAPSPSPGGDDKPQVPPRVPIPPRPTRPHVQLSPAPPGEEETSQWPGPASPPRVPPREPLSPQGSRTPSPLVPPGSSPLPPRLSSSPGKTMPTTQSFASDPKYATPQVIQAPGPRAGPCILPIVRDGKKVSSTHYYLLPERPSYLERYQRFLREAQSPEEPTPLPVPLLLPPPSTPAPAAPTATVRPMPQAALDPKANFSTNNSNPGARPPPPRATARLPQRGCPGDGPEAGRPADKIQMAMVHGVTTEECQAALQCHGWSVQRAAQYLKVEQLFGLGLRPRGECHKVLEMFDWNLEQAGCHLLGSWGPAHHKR

SMILES | inhibition at 1 µM (ACK) [%] | inhibition at 1 µM (JAK1) [%] | Kinase inhibition % at indicated screening concentration: AurB or AurC (AurB or AurC; screening concentration 1.0 μM) | inhibition at 10 µM [1] [%] | EC50 (human PBMCs) [nM] | Kinase inhibition % at indicated screening concentration: ABL or ARG (ABL or ARG; screening concentration 1.0 μM) | inhibition at 0.1 µM (ACK) [%] | inhibition at 0.1 µM (JAK1) [%] | Kinase inhibition % at indicated screening concentration: AurB or AurC (AurB or AurC; screening concentration 0.1 μM) | Kinase inhibition % at indicated screening concentration: ABL or ARG (ABL or ARG; screening concentration 0.1 μM)
CCOc1cc(C(=O)N[C@@H]2CCCOC2)ccc1Nc1cc2c(cn1)N(C)C(=O)c1ccccc1N2C [Compound 69] | ≤ 35 | ≤ 35 | E (E is ≦35%) | < 70 | 1070 | E (E is ≦35%) | – | – | – | –
COc1cc(C(=O)N2CCC(N(C)C)C2)ccc1Nc1cc2c(cn1)N(C)C(=O)c1ccccc1N2C (stereo not drawn) [Compound 70] | – | – | – | 70 to 85 | 2100 | – | ≤ 35 | ≤ 35 | E (E is ≦35%) | E (E is ≦35%)
CCOc1cc(C(=O)N2CCCNCC2)ccc1Nc1cc2c(cn1)N(C)C(=O)c1ccccc1N2C [Compound 71] | ≤ 35 | ≤ 35 | E (E is ≦35%) | > 85 | 780 | E (E is ≦35%) | – | – | – | –
CCOc1cc(C(=O)N2CCC(F)C2)ccc1Nc1cc2c(cn1)N(C)C(=O)c1occc1N2C (stereo not drawn) [Compound 72] | – | – | – | 70 to 85 | 1230 ± 150 | – | ≤ 35 | ≤ 35 | E (E is ≦35%) | E (E is ≦35%)
COc1cc(NS(C)(=O)=O)ccc1Nc1cc2c(cn1)N(C)C(=O)c1ccccc1N2C [Compound 73] | ≤ 35 | ≤ 35 | E (E is ≦35%) | < 70 | 1840 | E (E is ≦35%) | – | – | – | –
CN1C(=O)c2ccccc2N(C)c2cc(N[C@H]3CC[C@H](N4CCCC4)CC3)ncc21 [Compound 74] | ≤ 35 | ≤ 35 | E (E is ≦35%) | < 70 | 4960 | E (E is ≦35%) | – | – | – | –
CCOc1cc(C(=O)N2CC[C@H](N(C)C)C2)ccc1Nc1cc2c(cn1)N(C)C(=O)c1ccccc1N2C [Compound 75] | ≤ 35 | ≤ 35 | E (E is ≦35%) | > 85 | 610 | E (E is ≦35%) | – | – | – | –
CCOc1cc(C(=O)NC2CCOCC2)ccc1Nc1cc2c(cn1)N(C)C(=O)c1ccccc1N2C [Compound 80] | ≤ 35 | ≤ 35 | E (E is ≦35%) | < 70 | 1290 | E (E is ≦35%) | – | – | – | –
CCOc1cc(C(=O)N2CCNC[C@H]2C)ccc1Nc1cc2c(cn1)N(C)C(=O)c1ccccc1N2C [Compound 82] | – | – | – | > 85 | 1540 | – | ≤ 35 | ≤ 35 | E (E is ≦35%) | E (E is ≦35%)
CCOc1cc(C(=O)NCCOC)ccc1Nc1cc2c(cn1)N(C)C(=O)c1ccccc1N2C [Compound 83] | ≤ 35 | ≤ 35 | E (E is ≦35%) | < 70 | 1480 | E (E is ≦35%) | – | – | – | –
CCOc1cc(C(=O)NCCn2ccnc2)ccc1Nc1cc2c(cn1)N(C)C(=O)c1ccccc1N2C [Compound 84] | ≤ 35 | ≤ 35 | E (E is ≦35%) | < 70 | 1180 | E (E is ≦35%) | – | – | – | –
CCOc1cc(C(=O)N(C)CCN(C)C)ccc1Nc1cc2c(cn1)N(C)C(=O)c1ccccc1N2C [Compound 88] | – | – | – | > 85 | 600 | – | ≤ 35 | ≤ 35 | E (E is ≦35%) | E (E is ≦35%)
CCOc1cc(C(=O)N2CCC(N3CCCC3)CC2)ccc1Nc1cc2c(cn1)N(C)C(=O)c1occc1N2C [Compound 91, 6-((2-Ethoxy-4-(4-(pyrrolidin-1-yl)piperidine-1-carbonyl)phenyl)amino)-4,9-dimethyl-4H-furo[3,2-e]pyrido[3,4-b][1,4]diazepin-10(9H)-one] | – | – | – | > 85 | 710 | – | ≤ 35 | ≤ 35 | E (E is ≦35%) | E (E is ≦35%)
CCOc1cc(C(=O)N2CCCC(O)C2)ccc1Nc1cc2c(cn1)N(C)C(=O)c1ccccc1N2C (stereo not drawn) [Compound 93] | ≤ 35 | ≤ 35 | E (E is ≦35%) | > 85 | 760 | E (E is ≦35%) | – | – | – | –
CCOc1cc(C(=O)N2CCN(C(C)(C)C)CC2)ccc1Nc1cc2c(cn1)N(C)C(=O)c1ccccc1N2C [Compound 94] | – | – | – | 70 to 85 | 980 | – | ≤ 35 | ≤ 35 | E (E is ≦35%) | E (E is ≦35%)
CCOc1cc(C(=O)N2CCC[C@H](O)C2)ccc1Nc1cc2c(cn1)N(C)C(=O)c1ccccc1N2C [Compound 96] | – | – | – | > 85 | 570 | – | ≤ 35 | ≤ 35 | E (E is ≦35%) | E (E is ≦35%)
CCOc1cc(C(=O)N[C@H]2CCCOC2)ccc1Nc1cc2c(cn1)N(C)C(=O)c1ccccc1N2C [Compound 100] | ≤ 35 | ≤ 35 | E (E is ≦35%) | 70 to 85 | 1020 | E (E is ≦35%) | – | – | – | –
CCOc1cc(C(=O)NCCOCCO)ccc1Nc1cc2c(cn1)N(C)C(=O)c1ccccc1N2C [Compound 101] | ≤ 35 | ≤ 35 | E (E is ≦35%) | 70 to 85 | 970 | E (E is ≦35%) | – | – | – | –
CN1C(=O)c2ccccc2N(C)c2cc(NC3CCOCC3)ncc21 [Compound 102] | ≤ 35 | ≤ 35 | E (E is ≦35%) | < 70 | 2520 | E (E is ≦35%) | – | – | – | –
